From patent US5965372A, “Genetic sequences encoding glucocorticoid dehydrogenases and uses thereof” (Baker Medical Research Institute, priority 1996, dated 1999)

How the values were obtained:
11βHSD2 [1] = target: T1, 11βHSD2 (Homo sapiens, UniProt P80365); assay: Cofactor specificity of glucocorticoid metabolism in homogenates of pHSD2 transfected CHOP cells; type: biochemical; details: 1 mM NAD+ or 1 mM NADP+, 37° C. for 40 minutes, TLC
T1 construct: homogenates or intact cells
T1 sequence (P80365 1-405 V148L): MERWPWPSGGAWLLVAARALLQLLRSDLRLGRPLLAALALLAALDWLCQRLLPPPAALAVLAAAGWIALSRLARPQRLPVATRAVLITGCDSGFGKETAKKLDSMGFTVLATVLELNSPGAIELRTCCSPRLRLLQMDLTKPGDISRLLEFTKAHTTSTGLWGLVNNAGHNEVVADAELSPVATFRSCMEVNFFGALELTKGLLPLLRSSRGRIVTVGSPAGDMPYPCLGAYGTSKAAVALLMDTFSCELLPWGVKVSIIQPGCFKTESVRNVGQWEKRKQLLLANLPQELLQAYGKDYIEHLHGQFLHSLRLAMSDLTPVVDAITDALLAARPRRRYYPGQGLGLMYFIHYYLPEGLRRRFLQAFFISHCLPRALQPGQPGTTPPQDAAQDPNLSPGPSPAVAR
Experimental: CHOP cells were transfected with plasmid pHSD2, which contains an insert encoding 11βHSD2. After 60 hours incubation in 85 mm plates, cellular homogenates were prepared and assayed for their ability to metabolise glucocorticoid substrates in the presence of 1 mM NAD+, or 1 mM NADP+. Confluent cells were homogenised in 1 ml of homogenisation buffer (0.25 M sucrose, 10 MM phosphate, pH 7). Reaction mixtures (500 μl) contained either 40 μl of homogenate plus [^3 H]corticosterone, or 80 μl of homogenate plus [^3 H]cortisol, or 120 μl of homogenate plus [^3 H]dexamethasone, in homogenisation buffer. All reactions contained 1-2 nM tritiated glucocorticoid substrate plus 10 nM unlabelled glucocorticoid substrate. Reaction mixtures were incubated at 37° C. for 40 minutes and steroid metabolites were assayed by thin layer chromatography.

11βHSD2 [2] = target: T1, 11βHSD2; assay: Directionality and end product inhibition in intact pHSD2 transfected CHOP cells; type: cell-based; details: monolayer cultures, 1.5 hours at 37° C., 1-2 nM labelled substrate, TLC
Experimental: To determine directionality and extent of end production inhibition of the enzyme encoded by pHSD2, monolayer cultures of transfected CHOP cells were incubated for 1.5 hours at 37° C. with 1-2 nM labelled substrates plus 10 nM corresponding unlabelled 11-dehydro metabolite (FIG. 2b). The culture medium was then removed, extracted and assayed by TLC for the presence of the 11-dehydro metabolite.
Dehydrogenase activity was also estimated in the presence of an excess of the respective 11-dehydro metabolite (FIG. 2b, III).

11βHSD2 [3] = target: T1, 11βHSD2; assay: Km determination in homogenates of pHSD2 transfected CHOP cells; type: biochemical; details: double reciprocal plot, 37° C., mean±SD, n=3
Excerpt: The efficiency of the dehydrogenase may be further increased by mechanisms such as intracellular compartmentalisation of the enzyme.

C[C@]12CCC(=O)C=C1CC[C@@H]1[C@@H]2[C@@H](O)C[C@@]2(C)[C@H]1CC[C@]2(O)C(=O)CO [cortisol]
glucocorticoid metabolism to 11-dehydro metabolite, cofactor dependence (11βHSD2 [1]): only showed significant glucocorticoid metabolism when NAD+, but not NADP+, was included as a cofactor | metabolite formation by intact transfected CHOP cells (11βHSD2 [2]): converted

C[C@]12C[C@H](O)[C@H]3[C@@H](CCC4=CC(=O)CC[C@@]43C)[C@@H]1CC[C@@H]2C(=O)CO [corticosterone]
glucocorticoid metabolism to 11-dehydro metabolite, cofactor dependence (11βHSD2 [1]): only showed significant glucocorticoid metabolism when NAD+, but not NADP+, was included as a cofactor | Km (11βHSD2 [3]): 5.1 ± 1.2 nM | metabolite formation by intact transfected CHOP cells (11βHSD2 [2]): converted

C[C@]12CC(=O)[C@H]3[C@@H](CCC4=CC(=O)CC[C@@]43C)[C@@H]1CC[C@@H]2C(=O)CO [11-dehydro corticosterone]
metabolite formation by intact transfected CHOP cells (11βHSD2 [2]): no metabolite formed

C[C@@H]1C[C@H]2[C@@H]3CCC4=CC(=O)C=C[C@]4(C)[C@@]3(F)[C@@H](O)C[C@]2(C)[C@@]1(O)C(=O)CO [dexamethasone]
glucocorticoid metabolism to 11-dehydro metabolite, cofactor dependence (11βHSD2 [1]): only showed significant glucocorticoid metabolism when NAD+, but not NADP+, was included as a cofactor

C[C@]12CCC(=O)C=C1CC[C@@H]1[C@@H]2C(=O)C[C@@]2(C)[C@H]1CC[C@]2(O)C(=O)CO [cortisone]
metabolite formation by intact transfected CHOP cells (11βHSD2 [2]): no metabolite formed
